# Entries after “also recorded” stand apart in the source; their conditions may differ.
# Key:
# [1] = test system: rat bladder irritated by intravesical protamine sulfate/KCl; experiment: Urothelial permeation/physiological potassium model (protamine sulfate/KCl bladder irritation), filling cystometry; type: in vivo
# Text: Female rats (250-275 g BW) are anesthetized with urethane (1.2 g/kg) and a saline-filled jugular catheter (PE-50) is inserted for intravenous drug administration. Via a midline abdominal incision, a PE 50 catheter is inserted into the bladder dome for bladder filling and pressure recording. The abdominal cavity is moistened with saline and closed by covering with a thin plastic sheet in order to maintain access to the bladder for filling cystometry emptying purposes. Fine silver or stainless steel wire electrodes are inserted into the external urethral sphincter (EUS) percutaneously for electromyography (EMG).
# Saline and all subsequent infusates are continuously infused at a rate of 0.055 ml/min via the bladder filling catheter for 30-60 minutes to obtain a baseline of lower urinary tract activity (continuous cystometry; CMG). Bladder pressure traces act as direct measures of bladder and urethral outlet activity, and EUS-EMG phasic firing and voiding act as indirect measures of lower urinary tract activity during continuous transvesical cystometry. […] Once a stable level of lower urinary tract hyperactivity is established (20-30 minutes), vehicle followed by increasing doses of a selected active agent are administered intravenously in order to construct a cumulative dose-response relationship and their effects on LUT function are monitored for 20 minutes. […]
# [2] = test system: rat bladder irritated by intravesical dilute acetic acid; experiment: Dilute acetic acid model of bladder overactivity, filling cystometry; type: in vivo; conditions: for bladder capacity normalized to pre-irritation saline control values (reversal of acetic acid-induced reduction) / bladder capacity during continuous intravesical dilute acetic acid infusion: rats; for bladder capacity normalized to pre-irritation saline control values (reversal of acetic acid-induced reduction): intravenous cumulative doses: gabapentin 30-300 mg/kg n=11, pregabalin 10-100 mg/kg n=7; for bladder capacity during continuous intravesical dilute acetic acid infusion: intravenous increasing doses (gabapentin 30-300 mg/kg, p=0.0031 by Friedman test; pregabalin 10-100 mg/kg)
# Text: Animal Preparation Female rats (250-275 g BW) were anesthetized with urethane (1.2 g/kg) and a saline-filled catheter (PE-50) was inserted into the jugular vein for intravenous drug administration. Via a midline lower abdominal incision, a flared-tipped PE 50 catheter was inserted into the bladder dome for bladder filling and pressure recording and secured by ligation. The abdominal cavity was moistened with saline and closed by covering with a thin plastic sheet in order to maintain access to the bladder for emptying purposes. Fine silver or stainless steel wire electrodes were inserted into the external urethral sphincter (EUS) percutaneously for electromyography (EMG).
# Experimental Design: Saline was continuously infused at a rate of 0.055 ml/min via the bladder filling catheter for 60 minutes to obtain a baseline of lower urinary tract activity (continuous cystometry; CMG). Following the control period, a 0.25% acetic acid solution in saline was infused into the bladder at the same flow rate to induce bladder irritation. Following 30 minutes of AA infusion, 3 vehicle injections were made at 20 minute intervals to determine vehicle effects, if any. Increasing doses of a selected active agent, gabapentin (30, 100 and 300 mg/kg; n=11) or pregabalin (10, 30 and 100 mg/kg; n=7), at half log increments were administered intravenously at 30 minute intervals in order to construct a cumulative dose-response relationship. At the end of the control saline cystometry period, at the third vehicle, and 20 minutes following each subsequent treatment, the infusion pump was stopped, the bladder was emptied via the infusion catheter and a single filling cystometrogram was performed at the same flow rate in order to determine changes in bladder capacity caused by the irritation protocol and subsequent […] drug administration. Body temperature was maintained at 37 C with a heating pad.
# Bladder capacity was estimated by single filling cystometry. Data were analyzed by non-parametric ANOVA for repeated measures (Friedman Test) for cumulative dose-response studies and Dunn's Multiple Comparison post-test. In some cases, comparisons were made from the last vehicle measurement (AA/Veh 3). P<0.050 was considered significant.
# [3] = test system: calcium currents of bladder afferent (DRG) neurons; experiment: Bladder sensory neuron calcium current model (whole cell patch-clamp); type: cell-based, rat
# Text: Labeling of bladder afferent neurons: Adult female Sprague-Dawley rats (150-300 g) were deeply anesthetized with isoflurane. A ventral midline incision was made through the abdominal skin and musculature, exposing the urinary bladder. Five injections of the fluorescent dye Fast Blue (4%) were made into the bladder smooth muscle wall to label primary afferent fibers innervating the bladder. The area was rinsed with sterile saline to eliminate nonspecific spread of dye, and the incision was closed. Rats recovered for 12-14 days to allow for transport of Fast Blue from distal terminals to the cell somata of dorsal root ganglion (DRG) neurons. Labeled neurons were identified in vitro using fluorescence optics. […]
# Neurons were incubated in culture medium containing the FITC-labeled lectin BSI-B4 (IB4, […]) at 37° C. for 5 min before recording. The coverslip was washed with extracellular recording solution for 1 min before being placed in a recording chamber mounted on the stage of an inverted microscope equipped with fluorescence optics. […]
# Calcium currents were recorded from DRG neurons using standard electrophysiologic protocols. […] Currents were recorded using a patch-clamp amplifier and digitized at 3-10 kHz for acquisition. […] Baseline responses were recorded until a steady-state peak amplitude was obtained, and to ensure that the kinetics of the response were stable. […]
# [4] = test system: α2δ subunit of calcium channels; conditions: Bryans et al. (1999) Med. Res. Rev. 19: 149-177; cited from earlier work
SMILES,"bladder capacity during continuous bladder irritation (protamine sulfate/KCl) ([1]; rats n=6, 30, 100 and 300 mg/kg intravenously, sequential at 30 minute intervals, p=0.0108 by Friedman test)","drug-induced changes in blood pressure ([1]; rats, intravenous, any dose examined)","bladder capacity response compared with last vehicle measurement (AA/Veh 3) ([2]; rats n=5, 300 mg/kg intravenous, p<0.05 by Dunn's multiple comparison test)",bladder capacity normalized to pre-irritation saline control values (reversal of acetic acid-induced reduction) [2] [%],bladder capacity during continuous intravesical dilute acetic acid infusion [2],"peak calcium current during drug application, relative to control ([3]; 30 μM bath application, six bladder afferent neurons, step from −80 mV to 0 mV, mean±SEM)","block of currents recorded from bladder afferent neurons ([3]; 0.1 mM, data not shown)",binding affinity for the α2δ subunit of calcium channels compared with gabapentin [4]
"NCC1(CC(=O)O)CCCCC1 [gabapentin, 1-(aminomethyl)cyclohexaneacetic acid]",reversed the irritation effect (decreased bladder capacity) in a dose-dependent fashion; also recorded: dose-dependent increase in bladder capacity,No drug-induced changes in blood pressure,significantly higher than AA/Veh 3,~50,partially reversing the reduction in bladder capacity caused by acetic acid in a dose-dependent fashion; also recorded: dose-dependent increase in bladder capacity; also recorded: demonstrate efficacy,85+1%,,
[Cl][Cd][Cl] [CdCl2],,,,,,,completely blocked,
"CC(C)C[C@H](CN)CC(=O)O [Pregabalin, (S)-(3-aminomethyl)-5-methylhexanoic acid]",,,,42,demonstrate efficacy,,,even higher binding affinity
